Assay results taken from PubChem BioAssay AID248 (DTP/NCI, 2004).
Inconclusive results and toxic doses are left out. No stated cut-off is given here; in the data, active means T/C of 150% or more; inactive means T/C below 125%.

Tested on: L1210 leukemia ip in BDF1 mice, survival T/C
Test: NCI In Vivo Anticancer Drug Screen. Data for tumor model L1210 Leukemia (intraperitoneal) in B6D2F1 (BDF1) mice
Details: endpoint: mean survival time, higher = longer survival
Method in brief: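 Value reflects the ratio of survival in compound-treated mice to survival in vehicle-treated controls, with both groups carrying the same transplanted tumor.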

[1] = dose: 100.0 mg/kg/injection, schedule: Q01DX001 (ip), vehicle: saline
[2] = dose: 200.0 mg/kg/injection, schedule: Q01DX001 (ip), vehicle: saline
[3] = dose: 400.0 mg/kg/injection, schedule: Q01DX001 (ip), vehicle: saline
[4] = dose: 12.5 mg/kg/injection, schedule: Q04DX002 (ip), vehicle: Klucel (hydroxypropylcellulose) (HPC)
[5] = dose: 25.0 mg/kg/injection, schedule: Q04DX002 (ip), vehicle: Klucel (hydroxypropylcellulose) (HPC)
[6] = dose: 50.0 mg/kg/injection, schedule: Q04DX002 (ip), vehicle: Klucel (hydroxypropylcellulose) (HPC)
[7] = dose: 100.0 mg/kg/injection, schedule: Q04DX002 (ip), vehicle: Klucel (hydroxypropylcellulose) (HPC)
[8] = dose: 100.0 mg/kg/injection, schedule: Q04DX003 (ip), vehicle: Klucel (hydroxypropylcellulose) (HPC)
[9] = dose: 200.0 mg/kg/injection, schedule: Q04DX003 (ip), vehicle: Klucel (hydroxypropylcellulose) (HPC)
[10] = dose: 100.0 mg/kg/injection, schedule: Q01DX009 (ip), vehicle: saline with Tween-80
[11] = dose: 200.0 mg/kg/injection, schedule: Q01DX009 (ip), vehicle: saline with Tween-80
[12] = dose: 400.0 mg/kg/injection, schedule: Q01DX009 (ip), vehicle: saline with Tween-80
[13] = dose: 100.0 mg/kg/injection, schedule: Q01DX009 (ip), vehicle: Klucel (hydroxypropylcellulose) (HPC)
[14] = dose: 200.0 mg/kg/injection, schedule: Q01DX009 (ip), vehicle: Klucel (hydroxypropylcellulose) (HPC)
[15] = dose: 100.0 mg/kg/injection, schedule: Q01DX001 (ip), vehicle: Klucel (hydroxypropylcellulose) (HPC)
[16] = dose: 200.0 mg/kg/injection, schedule: Q01DX001 (ip), vehicle: Klucel (hydroxypropylcellulose) (HPC)
[17] = dose: 100.0 mg/kg/injection, schedule: Q04DX003 (ip), vehicle: saline with Tween-80
[18] = dose: 200.0 mg/kg/injection, schedule: Q04DX003 (ip), vehicle: saline with Tween-80

Measured: T/C

CSc1cc(=O)n(C2OC(CO)C(O)C2O)c(=O)[nH]1 (configuration not stated)
inactive: [1] 101 % of control | dose: 100.0 mg/kg/injection, schedule: Q01DX005 (ip), vehicle: saline 101 % of control | [2] 118 % of control | dose: 200.0 mg/kg/injection, schedule: Q01DX005 (ip), vehicle: saline 97 % of control | [3] 104 % of control

CCOC(=O)CCN(C)CCC(=O)OCC
inactive: dose: 12.5 mg/kg/injection, schedule: Q01DX009 (ip), vehicle: water 101 % of control | dose: 25.0 mg/kg/injection, schedule: Q01DX009 (ip), vehicle: water 103 % of control | dose: 25.0 mg/kg/injection, schedule: Q04DX003 (ip), vehicle: water 101 % of control | dose: 50.0 mg/kg/injection, schedule: Q01DX009 (ip), vehicle: water 105 % of control | dose: 50.0 mg/kg/injection, schedule: Q04DX003 (ip), vehicle: water 101 % of control | dose: 100.0 mg/kg/injection, schedule: Q04DX003 (ip), vehicle: water 101 % of control

CCCCNc1ccc([N+](=O)[O-])cc1[N+](=O)[O-]
inactive: dose: 50.0 mg/kg/injection, schedule: Q01DX009 (ip), vehicle: other 104 % of control | dose: 100.0 mg/kg/injection, schedule: Q01DX009 (ip), vehicle: other 93 % of control | dose: 100.0 mg/kg/injection, schedule: Q04DX003 (ip), vehicle: other 104 % of control | dose: 200.0 mg/kg/injection, schedule: Q01DX009 (ip), vehicle: other 104 % of control | dose: 200.0 mg/kg/injection, schedule: Q04DX003 (ip), vehicle: other 96 % of control

O=[N+]([O-])c1cccc2nonc12
inactive: dose: 3.12 mg/kg/injection, schedule: Q04DX002 (ip), vehicle: Klucel (hydroxypropylcellulose) (HPC) 93 % of control | dose: 6.25 mg/kg/injection, schedule: Q04DX002 (ip), vehicle: Klucel (hydroxypropylcellulose) (HPC) 109 % of control | [4] 102 % of control

O=C1c2ccccc2C(=O)N1CC1CO1 (configuration not stated)
inactive: [5] 90 % of control | [6] 93 % of control | [7] 93 % of control

COc1ccc2c(c1)OC(OC)(c1ccccc1)C(O)(OC)C2=O (configuration not stated)
inactive: dose: 50.0 mg/kg/injection, schedule: Q01DX001 (ip), vehicle: saline 96 % of control | [1] 98 % of control | [2] 96 % of control | [3] 98 % of control

CC1c2c(ccc3c2CCC=C3)CCC1CC1=CCCc2ccc3ccccc3c21 (configuration not stated)
inactive: dose: 100.0 mg/kg/injection, schedule: Q01DX009 (ip), vehicle: saline 107 % of control | [8] 103 % of control | dose: 200.0 mg/kg/injection, schedule: Q01DX009 (ip), vehicle: saline 95 % of control | [9] 90 % of control | dose: 400.0 mg/kg/injection, schedule: Q01DX009 (ip), vehicle: saline 93 % of control | dose: 400.0 mg/kg/injection, schedule: Q04DX003 (ip), vehicle: Klucel (hydroxypropylcellulose) (HPC) 95 % of control

CCCCC(=O)C(OC)OC
inactive: [10] 119 % of control | [11] 95 % of control | [12] 92 % of control

Cc1ccc2cccc(O)c2n1
inactive: [4] 94 % of control | [5] 88 % of control | [6] 102 % of control

CCOC(=O)C(Cl)CCl (configuration not stated)
inactive: dose: 50.0 mg/kg/injection, schedule: Q01DX009 (ip), vehicle: Klucel (hydroxypropylcellulose) (HPC) 97 % of control | [13] 100 % of control | [8] 108 % of control | [14] 104 % of control | [9] 97 % of control

O=C(O)/C=C/C(=O)Nc1ccccc1NC(=O)/C=C/C(=O)O
inactive: [13] 101 % of control | [14] 92 % of control | dose: 400.0 mg/kg/injection, schedule: Q01DX009 (ip), vehicle: Klucel (hydroxypropylcellulose) (HPC) 97 % of control

OC(CN1CCOCC1)c1ccccc1 (configuration not stated)
inactive: [13] 94 % of control | [8] 98 % of control | [14] 95 % of control | [9] 102 % of control

CN(C(=O)c1n[nH]c2ccccc12)c1ccccc1
inactive: [6] 101 % of control | [7] 108 % of control | dose: 200.0 mg/kg/injection, schedule: Q04DX002 (ip), vehicle: Klucel (hydroxypropylcellulose) (HPC) 101 % of control

COc1cc([N+](=O)[O-])ccc1C(=O)NC(CCC(=O)O)C(=O)O (configuration not stated)
inactive: [15] 95 % of control | [16] 106 % of control | dose: 400.0 mg/kg/injection, schedule: Q01DX001 (ip), vehicle: Klucel (hydroxypropylcellulose) (HPC) 100 % of control

C#CC(C)OCC(C)OC(C)=O (configuration not stated)
inactive: dose: 25.0 mg/kg/injection, schedule: Q01DX009 (ip), vehicle: acetone 95 % of control | dose: 50.0 mg/kg/injection, schedule: Q01DX009 (ip), vehicle: acetone 94 % of control | dose: 100.0 mg/kg/injection, schedule: Q01DX009 (ip), vehicle: acetone 99 % of control | dose: 100.0 mg/kg/injection, schedule: Q04DX003 (ip), vehicle: acetone 100 % of control | dose: 150.0 mg/kg/injection, schedule: Q01DX009 (ip), vehicle: saline 115 % of control | dose: 225.0 mg/kg/injection, schedule: Q01DX009 (ip), vehicle: saline 95 % of control | dose: 335.0 mg/kg/injection, schedule: Q01DX009 (ip), vehicle: saline 93 % of control

COc1ccc(/C=N\NC(=O)c2ccc(Cl)c(Cl)c2)cc1OC
inactive: dose: 50.0 mg/kg/injection, schedule: Q01DX009 (ip), vehicle: saline with Tween-80 117 % of control | [10] 93 % of control | [11] 90 % of control

Nc1ccc(C(=O)NCCCC(=O)O)cc1
inactive: [1] 108 % of control | [2] 103 % of control | [3] 95 % of control

CCOC(=O)c1sc2cc[nH]c2c1O
inactive: dose: 50.0 mg/kg/injection, schedule: Q01DX001 (ip), vehicle: Klucel (hydroxypropylcellulose) (HPC) 102 % of control | [15] 100 % of control | [16] 94 % of control

C[Si](C)(C)c1ccc(-c2ccccc2)cc1
inactive: dose: 25.6 mg/kg/injection, schedule: Q04DX002 (ip), vehicle: saline with Tween-80 90 % of control | dose: 64.0 mg/kg/injection, schedule: Q04DX002 (ip), vehicle: saline with Tween-80 90 % of control | dose: 160.0 mg/kg/injection, schedule: Q04DX002 (ip), vehicle: saline with Tween-80 97 % of control | dose: 400.0 mg/kg/injection, schedule: Q04DX002 (ip), vehicle: saline with Tween-80 101 % of control

CCCCN1C(=O)c2ccncc2C1=O
inactive: dose: 100.0 mg/kg/injection, schedule: Q01DX001 (ip), vehicle: saline with Tween-80 95 % of control | [17] 98 % of control | dose: 200.0 mg/kg/injection, schedule: Q01DX001 (ip), vehicle: saline with Tween-80 98 % of control | [18] 103 % of control | dose: 400.0 mg/kg/injection, schedule: Q01DX001 (ip), vehicle: saline with Tween-80 111 % of control | dose: 400.0 mg/kg/injection, schedule: Q04DX003 (ip), vehicle: saline with Tween-80 100 % of control

COC1(OC)C2CCC1(Cl)C(Cl)=C2Cl (configuration not stated)
inactive: [10] 95 % of control | [17] 93 % of control | [11] 92 % of control | [18] 91 % of control | [12] 89 % of control
